Values of other authors, collected in patent US20100119592A1, “CYTARABINE FOR TREATMENT OF GLIOMA” (priority 2006, published 2010).

Test system: proliferating mammalian cells in culture
Conditions: wide variety of proliferating mammalian cells in culture

## Nc1ccn([C@@H]2O[C@H](CO)[C@@H](O)[C@@H]2O)c(=O)n1 [Cytarabine, 4-amino-1-beta-D-arabinofuranosyl-2(1H)-pyrimidinone]
  cytotoxicity: cytotoxic
